Results: the NIST ThermoML archive (doi:10.1021/je9000697)

Assay: wn = mass fraction of the nth substance listed
Settings: 101 kPa, Liquid

OCCO [1,2-ethanediol] + O
Settings	mass density, 298.15 K [kg/m3]	mass density, 303.15 K [kg/m3]	mass density, 308.15 K [kg/m3]	mass density, 318.15 K [kg/m3]	viscosity, 298.15 K [mPa·s]	viscosity, 303.15 K [mPa·s]	viscosity, 308.15 K [mPa·s]	viscosity, 318.15 K [mPa·s]
w1 = 0.1	1009.49	1007.62	1005.57	1002.73	1.152	1.017	0.9078	0.7381
w1 = 0.2	1022.45	1020.98	1018.5	1014.28	1.469	1.306	1.149	0.9243
w1 = 0.3	1035.7	1034.05	1031.66	1026.73	1.903	1.657	1.462	1.164
w1 = 1	–	1104.47	1100.13	1092.15	18.64	13.86	11.66	7.453
